{"source": "patent US12697302B2", "about": "“Tricine and citric acid lipids” (Translate Bio, Inc., priority 2019, dated 2026)"}
{"system": "firefly luciferase (FFL) production in the lung", "experiment": "Delivery of firefly luciferase (FFL) mRNA by intratracheal administration, IVIS imaging of luciferase production in the lung", "assay_type": "in vivo", "conditions": "lipid nanoparticles with FFL mRNA, cationic lipid, DMG-PEG2000, cholesterol, DOPE; single intratracheal aerosol administration; male CD1 mice; 24 hours after administration", "method": "Lipid nanoparticle formulations comprising FFL mRNA, cationic lipid, DMG-PEG2000, cholesterol and DOPE were administered to male CD1 mice (6-8 weeks old) by a single intratracheal aerosol administration via a Microsprayer® (50 ul/animal) while under anesthesia. At approximately 24 hours post-dose, the animals were dosed with luciferin at 150 mg/kg (60 mg/ml) by intraperitoneal injection at 2.5 ml/kg. After 5-15 minutes, all animals were imaged using an IVIS imaging system to measure luciferase production in the lung."}
{"compound": "CCCCCCCCOC(=O)CC(CC(=O)OCCCCCCCC)(OC(=O)CCN(C)C)C(=O)OCCCCCCCC", "note": "[Compound 1, trioctyl 2-((3-(dimethylamino)propanoyl)oxy) propane-1,2,3-tricarboxylate]", "in vivo protein (FFL) production in the lung / luciferase activity": "high levels"}
{"compound": "CCCCCCCCCCCCCCOC(=O)CC(CC(=O)OCCCCCCCCCCCCCC)(OC(=O)CCN1CCCCC1)C(=O)OCCCCCCCCCCCCCC", "note": "[Compound 16]", "in vivo protein (FFL) production in the lung / luciferase activity": "high levels"}
{"compound": "CCCCCCCC(=O)OCC(COC(=O)CCCCCCC)(COC(=O)CCCCCCC)N(CC(=O)OCCN(C)C)C(=O)CCCCCCC", "note": "[Compound 177, 2-(N-(2-(2-(dimethylamino)ethoxy)-2-oxoethyl)octanamido)-2-((octanoyloxy)methyl) propane-1,3-diyl dioctanoate]", "in vivo protein (FFL) production in the lung / luciferase activity": "high levels"}
{"compound": "CCCCC/C=C\\C/C=C\\CCCCCCCCOC(=O)CC(CC(=O)OCCCCCCCC/C=C\\C/C=C\\CCCCC)(OC(=O)CCCN(C)C)C(=O)OCCCCCCCC/C=C\\C/C=C\\CCCCC", "note": "[Compound 249]", "in vivo protein (FFL) production in the lung / luciferase activity": "high levels"}
